Here are results for 52 compounds from PubChem BioAssay AID449762 (Southern Research Specialized Biocontainment Screening …, 2010).

Records with an inconclusive call do not appear.

For the test, the system named is M. tuberculosis H37Rv growth inhibition, 7H9 media. Nature of the test: M. tuberculosis growth inhibition, HTS (AID 449762).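 For all read-outs here: bacterial growth assessed after seven days of incubation.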 As to conditions: for IC90: measured here: IC90 growth inhibition.

A word on the IC50: it is the concentration that inhibits the measured activity by half. The IC90 is the point of the concentration-response curve where the effect stands at 90%.

Take `C#CCCc1cscc1/C=[N+](\[O-])c1ccc(C(=O)OCC)cc1`: the IC50 was 99.1 µM and the IC90 was above 100 µM.
The corresponding values for `COc1cccc2sc(Nc3nnc(-c4cccs4)o3)nc12` are 23.9 µM and 27.1 µM.
The corresponding values for `C[n+]1c(-c2ccccc2)c2cc(N)ccc2c2ccc(N)cc21` are 7.95 µM and 10.2 µM.
Turning to `CCOc1ccc(/C=N/Nc2ccc(Cl)nn2)c(O)c1`, the half-maximal inhibitory concentration (IC50) is 4.49 µM and the concentration for an effect of 90% (IC90) turned out to be 7.48 µM.
The corresponding values for `CC1(C)CN(c2ccccc2)N(C(=O)c2ccc(C#N)cc2)C1=O` are 72.4 µM and above 100 µM.
Turning to `CSc1ccccc1OCc1cc(C(=O)N2CCC(Oc3cccnc3)CC2)no1`, the concentration for half-maximal inhibition (IC50) was 24 µM and the 90% effect concentration (IC90) is 27.6 µM.
Take `O=C(CSC1=NC(=O)C(c2ccccc2)C(=O)N1)Nc1ccccc1Cl` (stereo not given): the half-inhibitory concentration (IC50) was 1.86 µM and the IC90 amounted to 6.58 µM.
Consider `CN1C(=O)/C(=C/c2ccccc2Cl)Sc2ccc(C(=O)NCc3cccnc3)cc21`, for which the half-inhibitory concentration (IC50) was 23.2 µM and the IC90 was 68.9 µM.
In the case of `Cc1ccc(NCCC(=O)c2ccc(Br)cc2)cc1`, the IC50 was 10.6 µM and the concentration for an effect of 90% (IC90) amounted to 21.5 µM.
As for `CCNc1nc(NC(C)(C)C)nc(N2CCCCC2)n1`, the IC50 was 99.6 µM and the concentration for an effect of 90% (IC90) is above 100 µM.
Consider `Cc1ccc(N/C=C2\C(=O)C3(C)CCC2C3(C)C)cc1C` (stereo not given), for which the IC90 is above 100 µM.
Consider `Clc1ccc(-c2[nH]ncc2N=Nc2ccccc2)cc1`, for which the half-maximal inhibitory concentration (IC50) is 31.7 µM and the 90% effect concentration (IC90) is above 100 µM.
The corresponding values for `CC1(C)Cc2c(C#N)c(N3CCN(C(=O)c4ccccc4)CC3)nc(Cc3ccccc3)c2CO1` are 28.8 µM and above 100 µM.
The corresponding values for `CC(C)(C)C(=O)NC(=S)NNC(=O)c1sc2ccccc2c1Cl` are 23.8 µM and above 100 µM.
The corresponding values for `CCCCCC1CC(CC(=O)NC(=S)Nc2ccc([N+](=O)[O-])cc2)C(=O)O1` (stereo not given) are 92.9 µM and above 100 µM.
In the case of `CCOC(=O)Cn1c(-c2ccccc2)ccc(C#N)c1=O`, the IC50 was 4.51 µM and the IC90 was above 100 µM.
The corresponding values for `CCCCn1c(O)c(/C=C2/C=CC=N2)c(=O)[nH]c1=O` are 6.55 µM and 17.1 µM.
The corresponding values for `CN(C)c1ccc(O)c2c1CC1CC3[C@@H](N(C)C)C(=O)C(C(N)=O)C(=O)[C@]3(O)C(=O)C1C2=O` (stereo not given in full) are 1.27 µM and 3.62 µM.
Consider `Cc1ccccc1N1CCN(C(=O)c2ccc(Oc3ccc(C(F)(F)F)cn3)cc2)CC1`, for which the half-maximal inhibitory concentration (IC50) was 24.4 µM and the IC90 was 60.5 µM.
The corresponding values for `COc1ccccc1OC(=O)c1ccc(S(=O)(=O)N(C)C)cc1` are 9.96 µM and 18.4 µM.
The corresponding values for `O=C(CCCCCNc1nc(=S)[nH]c2ccccc12)N1CCN(c2ccccn2)CC1` are 40.9 µM and above 100 µM.
Consider `CC(C)(C)c1ccc(C(=O)N2CCN(CCNC(=O)C(=O)NCc3ccc(Cl)cc3)CC2)cc1`, for which the IC50 was 22.7 µM and the IC90 came out at 28.3 µM.
As for `Nc1nc2ccccc2n1/N=C/c1ccc(Br)cc1`, the concentration for half-maximal inhibition (IC50) was 12.2 µM and the IC90 is above 25 µM.
The corresponding values for `CCN(CC)CCN(C(=O)c1ccc(S(=O)(=O)N2CCCC2)cc1)c1nc2cc(C)cc(C)c2s1` are 10.1 µM and 13.2 µM.
Consider `COc1cc(C#Cc2c(-c3cncn3C)n(C)c3ccc(-c4cnc(N5CCOCC5)nc4)cc23)cc(OC)c1`, for which the 50% inhibitory concentration (IC50) is 45.8 µM and the 90% effect concentration (IC90) amounted to 51.7 µM.
The corresponding values for `c1ccc2nc(-c3ccc(-n4ccnc4)cc3)ccc2c1` are 23.5 µM and 25.9 µM.
The corresponding values for `Cc1cc(-c2nnc3n2CCCCC3)c(C)n1-c1ccccc1` are 45.7 µM and 51.4 µM.
The corresponding values for `COc1cc2c(C(=O)N3CCN(c4cccc(Cl)c4)CC3)cn(CC(C)C)c(=O)c2cc1OC` are 47.7 µM and 53.9 µM.
Turning to `O=c1cc(O)c2sc3nc(-c4cccnc4)cc(C(F)(F)F)c3c2[nH]1`, the IC50 is 15.6 µM and the 90% effect concentration (IC90) was found to be 35.6 µM.
The corresponding values for `CCOc1ccc(-c2cc(C)[n+](CCc3ccc(OC)c(OC)c3)c(-c3ccc(OCC)cc3)c2)cc1` are 0.92 µM and 1.8 µM.
For `CCCCCCCNC1=CC(=O)CC(c2ccccc2)C1` (stereo not given), the half-inhibitory concentration (IC50) was 41.6 µM and the IC90 stood at 53.9 µM.
Regarding `c1ccc(C[C@H]2CN=C(Nc3ccccc3)N2CCCC2CCCC2)cc1`, the half-inhibitory concentration (IC50) was 31.4 µM and the IC90 turned out to be 48.5 µM.
Regarding `CC(C)c1ccc2[nH]c(O)c(N=NC(=O)c3ccc(CSc4nncn4C)cc3)c2c1`, the concentration for an effect of 90% (IC90) was above 100 µM.
As to `CCOC(=O)c1nnc(-c2ccccc2)nc1Sc1ccccc1Cl`, the half-maximal inhibitory concentration (IC50) is 20.7 µM and the concentration for an effect of 90% (IC90) was 49.2 µM.
`Cc1ccc(-c2ccc(C3C(C#N)=C(N)Oc4n[nH]c(C)c43)o2)cc1` (stereo not given): the half-inhibitory concentration (IC50) was 24.5 µM and the 90% effect concentration (IC90) came to 52 µM.
For `Oc1ccc(N=Nc2n[nH]c(-c3ccc(Cl)cc3)n2)cc1`, the 50% inhibitory concentration (IC50) is 11.8 µM and the concentration for an effect of 90% (IC90) worked out at 59 µM.
For `CCOC(=O)CSc1cc(=O)n(C)c2cc(Cl)ccc12`, the IC50 was below 0.2 µM and the IC90 turned out to be 73.9 µM.
As for `C=C(C)C(=O)OCC(O)COc1ccc(C(C)(C)c2ccc(OCC(O)COC(=O)C(=C)C)cc2)cc1` (stereo not given), the IC50 was 37.8 µM and the IC90 was 48.5 µM.
The corresponding values for `Cc1cc(C2=NNC(=NC3CCCCC3)SC2)c(C)n1-c1c(C)n(C)n(-c2ccccc2)c1=O` are 88.2 µM and above 100 µM.
The corresponding values for `Cc1cc(C)n(C(=O)c2ccc([N+](=O)[O-])cc2[N+](=O)[O-])n1` are 4.57 µM and 8.45 µM.
The corresponding values for `C/C(=N\NC(=O)c1nnn(-c2nonc2N)c1CN(C)c1ccccc1)c1ccccn1` are 8.5 µM and 15.7 µM.
For `CC(C)NCC(O)c1ccc(O)c(O)c1` (stereo not given), the IC90 is above 100 µM.
Same read-out and setting: the value for `COc1ccc(N2CN=C3SCC(=O)N3C2)cc1` was above 100 µM.
Consider `CN(C)C(=O)C1C2NC(=S)N(c3ccc(Cl)cc3)C1(C)Oc1ccc(Cl)cc12` (stereo not given), for which the IC50 is 23.6 µM and the concentration for an effect of 90% (IC90) stood at 26.9 µM.
The corresponding values for `CCOC(=O)CSc1ncnc2c1sc1nc(N3CCOCC3)c3c(c12)CCCC3` are 23.3 µM and 26.2 µM.
The corresponding values for `CC1CCC/C(=N\NC(=S)Nc2ccccc2)C1` (stereo not given) are 43.2 µM and 67.5 µM.
Take `CN(C)c1ccc(/C=C2\N=C(C(C)(C)C)OC2=O)cc1`: the IC50 was 14.4 µM and the 90% effect concentration (IC90) turned out to be 34.5 µM.
The corresponding values for `CSc1ccc(C(=O)C2CCCN(C(=O)c3ccc4c(c3)no[n+]4[O-])C2)cc1` (stereo not given) are 0.54 µM and 1.57 µM.
The corresponding values for `O=C1N/C(=N\N=C\c2ccccn2)SC1Cc1cccc(SC(F)F)c1` (stereo not given) are 73.1 µM and above 100 µM.
The corresponding values for `COC(=O)c1[nH]c2cc(OC)ccc2c1NC(=O)CN1CCN(c2cccc(C)c2)C(C)C1` (stereo not given) are 26.6 µM and 40.2 µM.
As to `COc1cc2[nH]c3c(N4CCN(c5ccccn5)CC4)ncnc3c2cc1OC`, the IC50 is 13.6 µM and the IC90 was above 50 µM.
The corresponding values for `CCCOC(=O)/C(=C\c1ccc([N+](=O)[O-])o1)NC(=O)c1ccccc1` are 11 µM and 16.2 µM.
